This is an account of results in US8822517B2, “Arylosulfonamides for the treatment of CNS diseases” (Adamed SP. Z O.O., priority 2010, dated 2014).

SMILES strings stand for the structures.

The target in one experiment is dopaminergic D2 receptor (Homo sapiens, UniProt P14416). Nature of the experiment: Binding assay D2S (h), [3H]methyl-spiperone, HEK-293 cells. Set-up: expressed in transfected cells; host or cells: HEK-293 cells. The note with it: read-out: D2 [%]. As for the experimental part: (§1) The specific ligand binding to the receptors is defined as the difference between the total binding and the nonspecific binding determined in the presence of an excess of so unlabelled ligand.
(§2) The specific Ligand binding to the receptor is defined as the difference between total and non-specific binding determined in the presence of an excess of unlabelled ligand. The compounds were tested at a concentration of 1×10^−6 M, and scintillation counting was the method of detection of ligand binding.

A further experiment has as its system adrenergic α1 receptor. Nature of the experiment: Binding assay α1 (non-selective), [3H]prazosin, rat cerebral cortex. The note with it: percent inhibition of control specific binding; compounds tested at 1×10^−6 M. As for the experimental part: as §1, §2
The target in experiment [1] is serotoninergic 5-HT6 receptor (Homo sapiens, UniProt P50406). Nature of the experiment: Binding assay 5-HT6 (h), [3H]LSD, CHO cells. Also noted: expressed in transfected cells; host or cells: CHO cells. The settings on record: read-out: 5-HT6. As for the experimental part:
as §1, §2

The target in experiment [2] is T1, serotonine transporter (SERT) receptor (Homo sapiens, UniProt P31645).
T1 construct: expressed in transfected cells; host or cells: CHO cells
Put plainly: Binding assay SERT (h), [3H]imipramine, CHO cells. The settings on record: read-out: SERT [%]. On the procedure:
as §1, §2

The target in the next experiment is dopaminergic D3 receptor (Homo sapiens, UniProt P35462). Nature of the experiment: Binding assay D3 (h), [3H]methyl-spiperone, CHO cells. Also noted: expressed in transfected cells; host or cells: CHO cells. The note with it: read-out: D3 [%]. As for the experimental part:
as §1, §2

In experiment [3] the target is serotoninergic 5-HT2A receptor (Homo sapiens, UniProt P28223). Put plainly: Binding assay 5-HT2A (h), [3H]ketanserin, HEK-293 cells. The settings on record: read-out: 5-HT2A. Set-up: expressed in transfected cells; host or cells: HEK-293 cells. As for the experimental part: as §1, §2
Experiment [4] deals with T2, serotoninergic 5-HT1A receptor (Homo sapiens, UniProt P08908).
T2 sequence (P08908 1-422): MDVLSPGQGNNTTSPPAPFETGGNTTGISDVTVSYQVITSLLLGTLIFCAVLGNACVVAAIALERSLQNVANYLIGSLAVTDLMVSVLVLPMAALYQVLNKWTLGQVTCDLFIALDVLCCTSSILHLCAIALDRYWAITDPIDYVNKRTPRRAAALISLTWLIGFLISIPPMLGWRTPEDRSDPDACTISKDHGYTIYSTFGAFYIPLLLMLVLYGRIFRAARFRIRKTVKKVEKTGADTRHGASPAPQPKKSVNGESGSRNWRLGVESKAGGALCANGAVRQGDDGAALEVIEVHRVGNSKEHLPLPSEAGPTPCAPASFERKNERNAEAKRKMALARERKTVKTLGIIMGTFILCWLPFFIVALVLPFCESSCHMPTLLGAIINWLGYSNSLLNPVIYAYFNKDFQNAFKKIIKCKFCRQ
Put plainly: Binding assay 5-HT1A (h), [3H]8-OH-DPAT, HEK-293 cells. Set-up: expressed in transfected cells; host or cells: HEK-293 cells. The settings on record: read-out: 5-HT1A. On the procedure:
as §1, §2

Experiment [5] deals with serotoninergic 5-HT7 receptor (Homo sapiens, UniProt P34969). Nature of the experiment: Binding assay 5-HT7 (h), [3H]LSD, CHO cells. The note with it: read-out: 5-HT7. Also noted: expressed in transfected cells; host or cells: CHO cells. As for the experimental part:
as §1, §2

serotoninergic 5-HT7 receptor, sequence (P34969 whole entry): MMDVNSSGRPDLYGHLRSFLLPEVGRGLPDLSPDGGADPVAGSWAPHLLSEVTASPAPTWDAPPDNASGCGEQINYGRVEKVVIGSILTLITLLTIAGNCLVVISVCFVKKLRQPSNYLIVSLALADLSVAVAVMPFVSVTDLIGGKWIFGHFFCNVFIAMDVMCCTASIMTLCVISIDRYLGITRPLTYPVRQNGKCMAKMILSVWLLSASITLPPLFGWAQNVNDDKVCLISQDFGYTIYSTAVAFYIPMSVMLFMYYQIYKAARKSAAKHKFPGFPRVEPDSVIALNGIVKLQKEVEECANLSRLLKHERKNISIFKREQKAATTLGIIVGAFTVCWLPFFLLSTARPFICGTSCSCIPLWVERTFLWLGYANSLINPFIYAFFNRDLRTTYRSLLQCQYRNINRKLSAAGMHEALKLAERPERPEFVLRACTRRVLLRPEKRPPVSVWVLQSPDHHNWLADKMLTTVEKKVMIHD
serotoninergic 5-HT6 receptor, sequence (P50406 whole entry): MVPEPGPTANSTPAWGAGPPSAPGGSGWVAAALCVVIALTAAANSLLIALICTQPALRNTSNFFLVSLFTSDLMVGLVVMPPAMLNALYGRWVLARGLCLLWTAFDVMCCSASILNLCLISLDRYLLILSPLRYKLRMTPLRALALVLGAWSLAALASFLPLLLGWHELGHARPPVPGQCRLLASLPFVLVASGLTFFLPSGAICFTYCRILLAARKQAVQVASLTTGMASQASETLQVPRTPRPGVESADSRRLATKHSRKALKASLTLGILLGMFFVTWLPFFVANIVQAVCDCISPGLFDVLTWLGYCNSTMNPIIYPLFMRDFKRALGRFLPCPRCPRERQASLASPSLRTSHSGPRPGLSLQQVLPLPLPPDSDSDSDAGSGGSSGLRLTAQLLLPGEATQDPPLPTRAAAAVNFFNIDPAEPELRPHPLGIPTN
dopaminergic D2 receptor, sequence (P14416 1-414 isoform P14416-2): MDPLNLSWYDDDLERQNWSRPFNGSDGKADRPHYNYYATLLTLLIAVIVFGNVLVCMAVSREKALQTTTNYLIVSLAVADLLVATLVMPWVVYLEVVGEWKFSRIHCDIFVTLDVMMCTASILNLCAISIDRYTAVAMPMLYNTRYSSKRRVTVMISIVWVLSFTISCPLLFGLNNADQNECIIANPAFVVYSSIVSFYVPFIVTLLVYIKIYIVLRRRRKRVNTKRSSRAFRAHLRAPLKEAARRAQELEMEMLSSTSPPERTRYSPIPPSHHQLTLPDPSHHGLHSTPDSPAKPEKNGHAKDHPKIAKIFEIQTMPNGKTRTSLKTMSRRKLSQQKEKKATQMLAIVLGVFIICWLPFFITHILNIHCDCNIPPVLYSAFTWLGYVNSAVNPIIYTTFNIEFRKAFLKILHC
serotoninergic 5-HT2A receptor, sequence (P28223 whole entry): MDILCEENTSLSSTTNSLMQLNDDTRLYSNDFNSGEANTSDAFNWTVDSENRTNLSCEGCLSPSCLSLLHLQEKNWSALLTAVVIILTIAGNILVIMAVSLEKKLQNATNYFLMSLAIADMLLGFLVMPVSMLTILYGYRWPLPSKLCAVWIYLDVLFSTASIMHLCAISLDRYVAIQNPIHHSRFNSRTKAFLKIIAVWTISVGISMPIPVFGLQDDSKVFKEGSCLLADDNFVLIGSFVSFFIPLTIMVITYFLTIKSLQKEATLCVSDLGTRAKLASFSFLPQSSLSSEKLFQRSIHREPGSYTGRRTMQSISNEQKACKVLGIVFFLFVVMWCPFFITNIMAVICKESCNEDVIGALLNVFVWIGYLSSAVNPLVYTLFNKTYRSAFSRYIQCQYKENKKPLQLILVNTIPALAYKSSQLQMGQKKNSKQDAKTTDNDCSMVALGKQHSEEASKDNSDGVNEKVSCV
T1 sequence (P31645 whole entry): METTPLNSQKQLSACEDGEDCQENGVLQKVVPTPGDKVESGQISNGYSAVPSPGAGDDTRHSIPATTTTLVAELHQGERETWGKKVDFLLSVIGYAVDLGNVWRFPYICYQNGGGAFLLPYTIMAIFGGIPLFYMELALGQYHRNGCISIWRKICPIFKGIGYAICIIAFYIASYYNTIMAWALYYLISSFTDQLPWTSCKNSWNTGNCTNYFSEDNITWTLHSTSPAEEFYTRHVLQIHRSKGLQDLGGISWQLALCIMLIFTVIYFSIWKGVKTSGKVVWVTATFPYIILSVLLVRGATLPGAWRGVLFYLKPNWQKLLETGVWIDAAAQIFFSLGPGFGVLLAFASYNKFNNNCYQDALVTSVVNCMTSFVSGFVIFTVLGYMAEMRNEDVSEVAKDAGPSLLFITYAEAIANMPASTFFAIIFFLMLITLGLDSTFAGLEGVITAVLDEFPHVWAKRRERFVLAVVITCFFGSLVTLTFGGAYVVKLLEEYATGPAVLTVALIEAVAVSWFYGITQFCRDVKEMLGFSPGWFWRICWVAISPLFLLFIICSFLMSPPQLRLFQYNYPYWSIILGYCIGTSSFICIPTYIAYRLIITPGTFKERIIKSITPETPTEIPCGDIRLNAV
dopaminergic D3 receptor, sequence (P35462 whole entry): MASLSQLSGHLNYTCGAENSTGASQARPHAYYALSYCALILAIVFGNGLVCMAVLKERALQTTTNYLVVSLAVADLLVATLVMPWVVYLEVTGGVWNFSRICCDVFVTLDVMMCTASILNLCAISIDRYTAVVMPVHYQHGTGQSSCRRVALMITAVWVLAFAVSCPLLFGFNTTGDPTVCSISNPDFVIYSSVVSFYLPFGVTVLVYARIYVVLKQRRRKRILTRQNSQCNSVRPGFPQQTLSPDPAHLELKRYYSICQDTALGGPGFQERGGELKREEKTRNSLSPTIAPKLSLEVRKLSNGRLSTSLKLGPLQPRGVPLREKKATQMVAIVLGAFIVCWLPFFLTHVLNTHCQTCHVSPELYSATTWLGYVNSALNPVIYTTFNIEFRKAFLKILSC

As for `O=S(=O)(NCCCN1CCC(c2noc3cc(F)ccc23)CC1)c1ccsc1` [Compound 340, N-[3-[4-(6-Fluoro-1,2-benzoxazol-3-yl)piperidin-1-yl]propyl]thiophene-3-sulphonamide], the inhibition at 1 µM was found to be 101% at dopaminergic D2 receptor; 72% in experiment [1]; 9% in experiment [2]; 101% at dopaminergic D3 receptor; 104% in experiment [3]; 45% in experiment [4]. Moreover, the inhibition at 1 µM in experiment [5] stood at 90%. The “α1 [%]” value in the experiment on adrenergic α1 receptor came out at 110%.

In the case of `O=S(=O)(NCCCCN1CCC(c2noc3cc(F)ccc23)CC1)c1cccc2scnc12` [Compound 318, N-[4-[4-(6-Fluoro-1,2-benzoxazol-3-yl)piperidin-1-yl]butyl]-1,3-benzothiazole-4-sulphonamide], the inhibition at 1 µM on dopaminergic D2 receptor came to 67%; in experiment [1], 76%; in experiment [2], 45%; on dopaminergic D3 receptor, 95%; in experiment [3], 89%; in experiment [4] it was 96%. Further, the inhibition at 1 µM in experiment [5] was found to be 92%. In addition, the “α1 [%]” value in the experiment with adrenergic α1 receptor is listed as 98%.

Consider `COc1cccc(S(=O)(=O)NCCCCN2CCN(c3cccc4c3OCCO4)CC2)c1` [Compound 394, N-[4-[4-(2,3-Dihydro-1,4-benzodioxin-5-yl)piperazin-1-yl]butyl]-3-methoxybenzenesulphonamide], for which the inhibition at 1 µM on dopaminergic D2 receptor is 72%; in experiment [1] it was 18%; in experiment [2], 12%; on dopaminergic D3 receptor it was 86%; in experiment [3] it was 71%; in experiment [4] it was 95%. The inhibition at 1 µM in experiment [5] was 98%. For the same molecule, in the experiment on adrenergic α1 receptor, the “α1 [%]” value worked out at 92%.

Turning to `Cc1[nH]c2ccc(Cl)cc2c1C1=CCN(CCCNS(=O)(=O)c2cccc(F)c2)CC1` [Compound 140, N-[3-[4-(5-Chloro-2-methyl-1H-indol-3-yl)-3,6-dihydro-2H-pyridin-1-yl]propyl]-3-fluorobenzenesulphonamide], the inhibition at 1 µM on dopaminergic D2 receptor was determined as 47%; in experiment [1] it was 92%; in experiment [2], 14%; at dopaminergic D3 receptor, 73%; in experiment [3] it was 68%; in experiment [4], 56%. For the same molecule, the inhibition at 1 µM in experiment [5] was 81%. Moreover, in the experiment with adrenergic α1 receptor, the “α1 [%]” value came to 17%.

For `O=S(=O)(NCCCCN1CCN(c2nsc3ccccc23)CC1)c1ccc(Br)cc1` [Compound 229, N-[4-[4-(1,2-Benzothiazol-3-yl)piperazin-1-yl]butyl]-4-bromobenzenesulphonamide], the inhibition at 1 µM on dopaminergic D2 receptor was 101%; in experiment [1], 75%; in experiment [2], 9%; on dopaminergic D3 receptor, 95%; in experiment [3] it was 80%; in experiment [4], 92%. Further, the inhibition at 1 µM in experiment [5] was 89%. In addition, the “α1 [%]” value with adrenergic α1 receptor is on record as 96%.

As for `Cn1ccc2c(S(=O)(=O)NCCCCN3CCC(c4noc5cc(F)ccc45)CC3)cccc21` [Compound 310, N-[4-[4-(6-Fluoro-1,2-benzoxazol-3-yl)piperidin-1-yl]butyl]-1-methyl-indole-4-sulphonamide], the inhibition at 1 µM is 96% on dopaminergic D2 receptor; 89% in experiment [1]; 57% in experiment [2]; 97% on dopaminergic D3 receptor; 99% in experiment [3]; 91% in experiment [4]. In addition, the inhibition at 1 µM in experiment [5] was determined as 89%. Further, the “α1 [%]” value in the experiment with adrenergic α1 receptor stood at 107%.

Regarding `N#Cc1cccc(S(=O)(=O)NCCCCN2CCC(c3noc4cc(F)ccc34)CC2)c1` [Compound 306, 3-Cyano-N-[4-[4-(6-fluoro-1,2-benzoxazol-3-yl)piperidin-1-yl]butyl]benzenesulphonamide], the inhibition at 1 µM was 106% on dopaminergic D2 receptor; 81% in experiment [1]; -10% in experiment [2]; 99% at dopaminergic D3 receptor; 97% in experiment [3]; 44% in experiment [4]. In experiment [5], the inhibition at 1 µM was found to be 89%. Further, in the experiment with adrenergic α1 receptor, the “α1 [%]” value is recorded as 99%.

On to `O=S(=O)(NCCCCN1CCN(c2nsc3ccccc23)CC1)c1ccc(F)cc1` [Compound 225, N-[4-[4-(1,2-Benzothiazol-3-yl)piperazin-1-yl]butyl]-4-fluorobenzenesulphonamide], for which the inhibition at 1 µM on dopaminergic D2 receptor was 77%; in experiment [1], 74%; in experiment [2], -4%; at dopaminergic D3 receptor, 76%; in experiment [3], 84%; in experiment [4], 87%. The inhibition at 1 µM in experiment [5] came to 92%. In the experiment with adrenergic α1 receptor, the “α1 [%]” value stood at 94%.

With `O=S(=O)(NCCCCN1CCC(c2noc3cc(F)ccc23)CC1)c1ccc2c(c1)CCO2` [Compound 317, N-[4-[4-(6-Fluoro-1,2-benzoxazol-3-yl)piperidin-1-yl]butyl]-2,3-dihydrobenzofuran-5-sulphonamide], the inhibition at 1 µM at dopaminergic D2 receptor was 105%; in experiment [1] it was 78%; in experiment [2] it was -17%; at dopaminergic D3 receptor, 97%; in experiment [3], 98%; in experiment [4], 45%. Moreover, the inhibition at 1 µM in experiment [5] amounted to 89%. In addition, the “α1 [%]” value in the experiment on adrenergic α1 receptor was 99%.

As to `O=c1[nH]c2ccc(S(=O)(=O)NCCCN3CCC(c4noc5cc(F)ccc45)CC3)cc2o1` [Compound 353, N-[3-[4-(6-Fluoro-1,2-benzoxazol-3-yl)piperidin-1-yl]propyl]-2-oxo-3H-1,3-benzoxazole-6-sulphonamide], the inhibition at 1 µM on dopaminergic D2 receptor is 91%; in experiment [1], 58%; in experiment [2] it was -1%; on dopaminergic D3 receptor, 97%; in experiment [3], 101%; in experiment [4] it was 48%. In experiment [5], the inhibition at 1 µM was 83%. The “α1 [%]” value in the experiment with adrenergic α1 receptor worked out at 103%.

As to `O=S(=O)(NCCCN1CCN(c2cccc3c2OCCO3)CC1)c1cccc(Cl)c1` [Compound 411, 3-Chloro-N-[3-[4-(2,3-dihydro-1,4-benzodioxin-5-yl)piperazin-1-yl]propyl]benzenesulphonamide], the inhibition at 1 µM is 40% at dopaminergic D2 receptor; 41% in experiment [1]; 12% in experiment [2]; 52% at dopaminergic D3 receptor; 4% in experiment [3]; 95% in experiment [4]. Moreover, the inhibition at 1 µM in experiment [5] turned out to be 89%. Moreover, the “α1 [%]” value in the experiment with adrenergic α1 receptor is 87%.

Regarding `O=S(=O)(NCCCCN1CCN(c2cccc3c2OCCO3)CC1)c1cccc(F)c1` [Compound 388, N-[4-[4-(2,3-Dihydro-1,4-benzodioxin-5-yl)piperazin-1-yl]butyl]-3-fluorobenzenesulphonamide], the inhibition at 1 µM at dopaminergic D2 receptor is 50%; in experiment [1] it was -20%; in experiment [2], -28%; at dopaminergic D3 receptor it was 83%; in experiment [3], 19%; in experiment [4], 92%. In addition, in experiment [5], the inhibition at 1 µM was 90%. In addition, the “α1 [%]” value in the experiment with adrenergic α1 receptor stood at 91%.

`O=S(=O)(NCCCN1CCN(c2cccc3c2OCCO3)CC1)c1csc2ccccc12` [Compound 416, N-[3-[4-(2,3-Dihydro-1,4-benzodioxin-5-yl)piperazin-1-yl]propyl]benzothiophene-3-sulphonamide]: the inhibition at 1 µM at dopaminergic D2 receptor is 59%; in experiment [1], 55%; in experiment [2], -4%; on dopaminergic D3 receptor it was 56%; in experiment [3], 58%; in experiment [4], 101%. Moreover, in experiment [5], the inhibition at 1 µM was 99%. Also, the “α1 [%]” value in the experiment with adrenergic α1 receptor amounted to 81%.
